Data: PubChem BioAssay (NCI)
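Following 48 hours of exposure in 96-well plates, responses at five concentrations were used to interpolate endpoints linearly. GI50 = concentration required for 50% inhibition of growth. TGI denotes the concentration required for complete inhibition of growth.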

Tests used:
Experiment in all cases: NCI anticancer screen, dose series, 48 h
[1] = system: K-562 leukemia
[2] = system: UACC-62 melanoma
[3] = system: U251 CNS
[4] = system: HOP-62 NSCLC
[5] = system: SK-MEL-5 melanoma
[6] = system: SF-295 CNS
[7] = system: DU-145 prostate
[8] = system: CCRF-CEM leukemia
[9] = system: OVCAR-3 ovarian
[10] = system: M14 melanoma
[11] = system: T-47D breast
[12] = system: SNB-19 CNS
[13] = system: MDA-MB-468 breast
[14] = system: SW-620 colon
[15] = system: OVCAR-8 ovarian
[16] = system: CAKI-1 renal
[17] = system: IGROV1 ovarian
[18] = system: SR leukemia
[19] = system: HT29 colon
[20] = system: 786-0 renal
[21] = system: MALME-3M melanoma
[22] = system: NCI-H460 lung
[23] = system: NCI-H522 lung
[24] = system: RXF 393 renal
[25] = system: LOX IMVI melanoma
[26] = system: HOP-92 NSCLC
[27] = system: EKVX NSCLC
[28] = system: A549 NSCLC
[29] = system: MDA-MB-435
[30] = system: NCI-H23 lung
[31] = system: OVCAR-4 ovarian
[32] = system: OVCAR-5 ovarian
[33] = system: RPMI-8226 leukemia
[34] = system: KM12 colon
[35] = system: MDA-MB-231 breast
[36] = system: TK-10 renal
[37] = system: HCT-116 colon
[38] = system: COLO 205 colon
[39] = system: A498 renal
[40] = system: HL-60(TB) leukemia
[41] = system: NCI/ADR-RES ovarian
[42] = system: ACHN renal
[43] = system: BT-549 breast
[44] = system: UO-31 renal
[45] = system: HS 578T breast
[46] = system: UACC-257 melanoma
[47] = system: HCT-15 colon
[48] = system: HCC-2998 colon
[49] = system: SN12C renal
[50] = system: SK-MEL-2 melanoma
[51] = system: PC-3 prostate
[52] = system: SK-MEL-28 melanoma
[53] = system: NCI-H226 lung
[54] = system: SF-539 CNS
[55] = system: MCF7 breast
[56] = system: SF-268 CNS
[57] = system: MOLT-4 leukemia
[58] = system: SK-OV-3 ovarian
[59] = system: SNB-75 CNS

Work on `O=C(Nc1ccc(-c2ccc3c(c2)NC(=O)/C3=C\c2ccc[nH]2)cc1)Nc1ccc(Cl)c(C(F)(F)F)c1` yielded a GI50 [1] of 2.54 µM, a TGI [1] of 11.3 µM and a GI50 [2] of 2.62 µM. The TGI [2] was 12.9 µM, the GI50 [3] was 1.64 µM and the TGI [3] was 3.42 µM. The GI50 [4] was 2.09 µM, the TGI [4] was 8.75 µM and the GI50 [5] was 5.56 µM. It also gave a TGI [5] of 18.8 µM, a GI50 [6] of 2.84 µM and a TGI [6] of 10.2 µM. For the same compound, the GI50 [7] was 2.13 µM, the TGI [7] was 4.99 µM and the GI50 [8] was 2.57 µM. The TGI [8] was 9.6 µM, the GI50 [9] was 1.57 µM and the TGI [9] was 3.62 µM. The GI50 [10] was 3.47 µM, the TGI [10] was 14.4 µM and the GI50 [11] was 0.29 µM. For the same compound, the TGI [11] was 4.12 µM, the GI50 [12] was 3.6 µM and the TGI [12] was 15.5 µM. It also gave a GI50 [13] of 0.033 µM, a TGI [13] of 0.322 µM and a GI50 [14] of 1.88 µM. For the same compound, the TGI [14] was 3.89 µM, the GI50 [15] was 2.17 µM and the TGI [15] was 5.38 µM. It also gave a GI50 [16] of 2.92 µM, a TGI [16] of 12.9 µM and a GI50 [17] of 4.05 µM. It also gave a TGI [17] of 17.4 µM, a GI50 [18] of 2.13 µM and a TGI [18] of 7.01 µM. For the same compound, the GI50 [19] was 2.56 µM, the TGI [19] was 7.71 µM and the GI50 [20] was 3.09 µM. The TGI [20] was 10.2 µM, the GI50 [21] was 3.78 µM and the TGI [21] was 16.4 µM. The GI50 [22] was 0.489 µM, the TGI [22] was 1.82 µM and the GI50 [23] was 1.54 µM. The TGI [23] was 3.67 µM, the GI50 [24] was 2.25 µM and the TGI [24] was 5.34 µM. It also gave a GI50 [25] of 1.73 µM, a TGI [25] of 3.33 µM and a GI50 [26] of 1.23 µM. For the same compound, the TGI [26] was 4.69 µM, the GI50 [27] was 0.243 µM and the TGI [27] was 6.38 µM. It also gave a GI50 [28] of 1.56 µM, a TGI [28] of 3.56 µM and a GI50 [29] of 2 µM. For the same compound, the TGI [29] was 4.67 µM, the GI50 [30] was 1.12 µM and the TGI [30] was 3.12 µM. It also gave a GI50 [31] of 1.24 µM, a TGI [31] of 8.4 µM and a GI50 [32] of 2.18 µM. For the same compound, the TGI [32] was 10.5 µM, the GI50 [33] was 1.56 µM and the TGI [33] was 4.98 µM. The GI50 [34] was 2.24 µM, the TGI [34] was 10.6 µM and the GI50 [35] was 2.23 µM. The TGI [35] was 10.1 µM, the GI50 [36] was 1.43 µM and the TGI [36] was 7.55 µM. It also gave a GI50 [37] of 1.78 µM, a TGI [37] of 3.46 µM and a GI50 [38] of 2.82 µM. It also gave a TGI [38] of 10.9 µM, a GI50 [39] of 2.35 µM and a TGI [39] of 9.4 µM. The GI50 [40] was 3.27 µM, the TGI [40] was 15 µM and the GI50 [41] was 2.93 µM. For the same compound, the TGI [41] was 11.1 µM, the GI50 [42] was 3 µM and the TGI [42] was 9.6 µM. The GI50 [43] was 2.05 µM, the TGI [43] was 6.15 µM and the GI50 [44] was 1.75 µM. For the same compound, the TGI [44] was 14.3 µM, the GI50 [45] was 2.64 µM and the TGI [45] was 16.1 µM. It also gave a GI50 [46] of 2.77 µM, a TGI [46] of 9.01 µM and a GI50 [47] of 1.6 µM. It also gave a TGI [47] of 4.04 µM, a GI50 [48] of 2.18 µM and a TGI [48] of 6.15 µM. The GI50 [49] was 1.71 µM, the TGI [49] was 3.53 µM and the GI50 [50] was 3.48 µM. For the same compound, the TGI [50] was 14.2 µM, the GI50 [51] was 1.83 µM and the TGI [51] was 6.69 µM. The GI50 [52] was 3.04 µM, the TGI [52] was 10.2 µM and the GI50 [53] was 1.33 µM. It also gave a TGI [53] of 11.4 µM, a GI50 [54] of 1.82 µM and a TGI [54] of 6.59 µM. It also gave a GI50 [55] of 0.18 µM, a TGI [55] of 1.63 µM and a GI50 [56] of 1.94 µM. The TGI [56] was 5.09 µM, the GI50 [57] was 2.48 µM and the TGI [57] was 11.4 µM. For the same compound, the GI50 [58] was 2.56 µM, the TGI [58] was 13.9 µM and the GI50 [59] was 2.64 µM. For the same compound, the TGI [59] was 17.4 µM.
